# Structures can show the parent of a compound that is named as a salt. Where two headings read alike, the source gives them in different places.
# Legend:
# Assay type in all cases: biochemical
# [1] = molecular target: T1, recombinant human DAO (diamine oxidase) (Homo sapiens, UniProt P19801); test: Activity on recombinant human DAO, Amplex Red method, 1 mM putrescine substrate; conditions: recombinant human DAO, read-out: Inhibitory Activity (IC50, nM) DAO
# T1 construct: purchased R&D systems
# T1 sequence (P19801 20-751): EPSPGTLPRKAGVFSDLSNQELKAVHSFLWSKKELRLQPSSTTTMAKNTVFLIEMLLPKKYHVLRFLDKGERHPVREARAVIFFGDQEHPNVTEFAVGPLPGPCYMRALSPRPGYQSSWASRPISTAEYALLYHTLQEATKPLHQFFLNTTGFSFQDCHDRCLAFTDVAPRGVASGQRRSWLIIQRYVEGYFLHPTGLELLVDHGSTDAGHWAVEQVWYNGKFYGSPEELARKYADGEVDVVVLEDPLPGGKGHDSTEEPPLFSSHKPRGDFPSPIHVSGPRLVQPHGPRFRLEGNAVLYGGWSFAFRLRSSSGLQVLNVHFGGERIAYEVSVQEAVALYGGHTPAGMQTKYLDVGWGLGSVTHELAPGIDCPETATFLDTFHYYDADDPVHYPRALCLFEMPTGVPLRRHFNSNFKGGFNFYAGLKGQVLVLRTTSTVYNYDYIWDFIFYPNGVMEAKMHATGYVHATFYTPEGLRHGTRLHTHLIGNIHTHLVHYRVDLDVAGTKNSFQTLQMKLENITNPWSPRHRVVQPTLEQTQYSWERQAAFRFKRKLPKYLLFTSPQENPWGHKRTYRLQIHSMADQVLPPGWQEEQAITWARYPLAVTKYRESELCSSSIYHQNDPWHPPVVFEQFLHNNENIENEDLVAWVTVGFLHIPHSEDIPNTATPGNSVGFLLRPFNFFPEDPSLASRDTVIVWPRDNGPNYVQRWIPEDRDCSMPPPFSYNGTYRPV
# Outline: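 Inhibition of recombinant human DAO (diamine oxidase, R&D systems) was assessed with the Amplex Red Hydrogen Peroxide Assay Kit. Hydrogen peroxide produced from 1 mM putrescine was detected through an HRP-coupled reaction that converts Amplex Red into fluorescent resorufin, read at 544 nm excitation and 590 nm emission. IC50 values came from four-parameter logistic fits in GraphPad Prism.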
# [2] = molecular target: T2, recombinant human MAO-B (monoamine oxidase-B) (Homo sapiens, UniProt P27338); test: Activity on recombinant human MAO-B, Amplex Red method, 1 mM benzylamine substrate; conditions: read-out: Inhibitory Activity (IC50, nM) MAO-B
# T2 construct: purchased Sigma-Aldrich
# T2 sequence (P27338 1-520): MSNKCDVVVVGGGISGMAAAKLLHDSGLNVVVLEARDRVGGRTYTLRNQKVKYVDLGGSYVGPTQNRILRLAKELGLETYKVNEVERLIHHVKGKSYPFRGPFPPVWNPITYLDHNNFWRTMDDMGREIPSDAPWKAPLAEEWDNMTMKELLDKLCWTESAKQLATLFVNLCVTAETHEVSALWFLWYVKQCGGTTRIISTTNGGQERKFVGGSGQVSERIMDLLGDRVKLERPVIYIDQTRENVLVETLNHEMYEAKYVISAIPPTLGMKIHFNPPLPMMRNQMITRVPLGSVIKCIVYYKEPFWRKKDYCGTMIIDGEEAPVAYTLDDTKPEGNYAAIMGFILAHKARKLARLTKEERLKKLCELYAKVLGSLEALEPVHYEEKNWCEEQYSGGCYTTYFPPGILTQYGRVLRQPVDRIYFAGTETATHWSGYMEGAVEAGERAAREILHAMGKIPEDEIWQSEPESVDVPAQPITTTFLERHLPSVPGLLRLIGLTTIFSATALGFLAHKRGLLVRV
# Outline: (§1)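 HRP-coupled Amplex Red H2O2 assay, 50 mM sodium phosphate pH 7.4; compounds (8-point 1:3 series, final DMSO <1%) preincubated with enzyme 30 min at 37° C, then 200 uM Amplex Red, 1 U/mL HRP and substrate (MAO-A 0.5 mM tyramine; MAO-B 1 mM benzylamine) added. Resorufin fluorescence (ex 544/em 590 nm) read over 1-2 h; IC50 from four-parameter logistic fit.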
# [3] = molecular target: T3, recombinant human MAO-A (monoamine oxidase-A) (Homo sapiens, UniProt P21397); test: Activity on recombinant human MAO-A, Amplex Red method, 0.5 mM tyramine substrate; conditions: read-out: Inhibitory Activity (IC50, nM) MAO-A
# T3 construct: purchased Sigma-Aldrich
# T3 sequence (P21397 1-527): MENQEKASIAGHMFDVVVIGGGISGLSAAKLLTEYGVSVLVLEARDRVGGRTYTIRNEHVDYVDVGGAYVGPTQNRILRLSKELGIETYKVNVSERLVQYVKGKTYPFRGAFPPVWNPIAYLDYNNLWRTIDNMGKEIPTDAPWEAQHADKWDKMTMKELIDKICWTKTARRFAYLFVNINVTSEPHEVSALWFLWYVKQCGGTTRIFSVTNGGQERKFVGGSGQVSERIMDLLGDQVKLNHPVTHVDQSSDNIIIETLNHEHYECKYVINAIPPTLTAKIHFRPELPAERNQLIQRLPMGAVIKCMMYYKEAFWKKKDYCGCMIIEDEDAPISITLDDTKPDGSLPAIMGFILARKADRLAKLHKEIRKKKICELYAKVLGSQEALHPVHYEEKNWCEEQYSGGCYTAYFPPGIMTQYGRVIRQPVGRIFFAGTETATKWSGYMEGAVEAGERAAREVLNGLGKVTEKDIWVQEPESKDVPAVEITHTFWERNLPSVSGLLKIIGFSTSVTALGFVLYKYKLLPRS
# Outline: as §1
# recombinant human VAP-1 = molecular target: T4, recombinant human VAP-1 (Homo sapiens, UniProt Q16853); test: Activity on recombinant human VAP-1, Amplex Red HRP-coupled hydrogen peroxide assay, benzylamine substrate; conditions: recombinant human VAP-1, benzylamine substrate, read-out: Inhibitory Activity (IC50, nM) human VAP-1
# T4 construct: purchased R&D systems
# T4 sequence (Q16853 1-763): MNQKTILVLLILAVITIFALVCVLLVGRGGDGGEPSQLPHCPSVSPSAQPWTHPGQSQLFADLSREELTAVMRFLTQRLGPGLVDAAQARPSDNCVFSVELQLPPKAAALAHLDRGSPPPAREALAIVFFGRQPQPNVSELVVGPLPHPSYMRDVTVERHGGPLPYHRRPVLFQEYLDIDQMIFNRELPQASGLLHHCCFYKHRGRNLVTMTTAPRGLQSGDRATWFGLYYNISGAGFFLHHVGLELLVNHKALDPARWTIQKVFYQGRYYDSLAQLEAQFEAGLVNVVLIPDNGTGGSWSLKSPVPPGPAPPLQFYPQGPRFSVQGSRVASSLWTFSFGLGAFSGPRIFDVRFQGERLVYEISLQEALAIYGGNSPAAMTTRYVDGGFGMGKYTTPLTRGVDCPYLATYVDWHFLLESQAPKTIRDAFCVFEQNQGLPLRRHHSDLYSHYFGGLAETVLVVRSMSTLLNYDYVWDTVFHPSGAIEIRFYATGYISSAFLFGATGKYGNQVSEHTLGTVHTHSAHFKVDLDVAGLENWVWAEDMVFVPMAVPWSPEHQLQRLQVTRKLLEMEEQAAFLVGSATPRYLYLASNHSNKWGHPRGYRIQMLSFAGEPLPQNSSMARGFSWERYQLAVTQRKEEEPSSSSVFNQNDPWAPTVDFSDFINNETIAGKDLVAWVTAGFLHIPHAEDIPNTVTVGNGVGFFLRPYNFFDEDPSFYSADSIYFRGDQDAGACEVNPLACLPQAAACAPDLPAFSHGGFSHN
# Outline: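 8-point 1:3 dilutions, final DMSO <1%; 30 min enzyme preincubation, 37 °C, pH 7.4 phosphate. Start: 1 mM benzylamine + 200 uM Amplex Red + 1 U/mL HRP. Read ex544/em590 over 1-2 h; % rate decrease vs DMSO control, 4-parameter logistic IC50.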
# [4] = 1 mM putrescine, * = between 10 and 100 nM, ** = between 300 and 1000 nM
Compound,IC50 ([1]; 1 mM putrescine substrate) [nM],IC50 ([2]; 1 mM benzylamine substrate) [nM],IC50 ([3]; 0.5 mM tyramine substrate) [nM],IC50 (recombinant human VAP-1) [nM],"IC50 [1, 4] [nM]",IC50 ([2]; 1 mM benzylamine) [nM],IC50 ([3]; 0.5 mM tyramine) [nM],IC50 (recombinant human VAP-1; 30 min preincubation at 37° C.) [nM]
"CS(=O)(=O)c1ccc(-c2cnc(-n3cnn(C/C(=C\F)CN)c3=O)s2)cc1 [Example 226, 2-[(2Z)-2-(aminomethyl)-3-fluoroprop-2-en-1-yl]-4-{5-[4-(methylsulfonyl)phenyl]-1,3-thiazol-2-yl}-2,4-dihydro-3H-1,2,4-triazol-3-one hydrochloride]",< 100,11.4,> 100000,1.4,,,,
"CC(=O)Nc1ccc(-c2cccc(-n3cnn(C/C(=C/F)CN)c3=O)c2)cc1 [Example 57, N-(3′-{1-[(2E)-2-(aminomethyl)-3-fluoroprop-2-en-1-yl]-5-oxo-1,5-dihydro-4H-1,2,4-triazol-4-yl}biphenyl-4-yl)acetamide hydrochloride]",,,,,< 100,> 10000,1250,0.38
"NC/C(=C\F)Cn1ncn(-c2cccc(C#Cc3ccc4c(c3)NCCO4)n2)c1=O [Example 250, 2-[(E)-2-(aminomethyl)-3-fluoro-allyl]-4-[6-[2-(3,4-dihydro-2H-1,4-benzoxazin-6-yl)ethynyl]-2-pyridyl]-1,2,4-triazol-3-one]",74,> 10000,> 100000,0.7,,,,
"NC/C(=C\F)Cn1ncn(-c2ncc(Br)cc2F)c1=O [Example 36, 2-[(2E)-2-(aminomethyl)-3-fluoroprop-2-en-1-yl]-4-(5-bromo-3-fluoropyridin-2-yl)-2,4-dihydro-3H-1,2,4-triazol-3-one hydrochloride]",,,,,23,3350,> 100000,1.2
"NC/C(=C\F)Cn1ncn(-c2ccc(Br)c(F)c2)c1=O [Example 14, 2-[(2E)-2-(aminomethyl)-3-fluoroprop-2-en-1-yl]-4-(4-bromo-3-fluorophenyl)-2,4-dihydro-3H-1,2,4-triazol-3-one hydrochloride]",,,,,38,35,5200,0.96
"CN(C)S(=O)(=O)c1ccc(-c2cccc(-n3cnn(C/C(=C/F)CN)c3=O)c2)cc1 [Example 55, 3′-{1-[(2E)-2-(aminomethyl)-3-fluoroprop-2-en-1-yl]-5-oxo-1,5-dihydro-4H-1,2,4-triazol-4-yl}-N,N-dimethylbiphenyl-4-sulfonamide hydrochloride]",,,,,1,1500,> 100000,0.3
"NC/C(=C\F)Cn1ncn(-c2cccc(/C=C/c3ccsc3)n2)c1=O [Example 237, 2-[(2E)-2-(aminomethyl)-3-fluoroprop-2-en-1-yl]-4-{6-[(E)-2-(thiophen-3-yl)ethenyl]pyridin-2-yl}-2,4-dihydro-3H-1,2,4-triazol-3-one]",170,< 100,20000,2.4,,,,
"NC/C(=C\F)Cn1ncn(-c2cccc(-c3ccc4nonc4c3)n2)c1=O [Example 195, 2-[(2E)-2-(aminomethyl)-3-fluoroprop-2-en-1-yl]-4-[6-(2,1,3-benzooxadiazol-5-yl)pyridin-2-yl]-2,4-dihydro-3H-1,2,4-triazol-3-one]",< 30,620,> 100000,0.66,,,,
"NC/C(=C\F)Cn1ncn(-c2cccc(-c3ccc(OC(F)(F)F)cc3)c2)c1=O [Example 50, 2-[(2E)-2-(aminomethyl)-3-fluoroprop-2-en-1-yl]-4-[4′-(trifluoromethoxy)biphenyl-3-yl]-2,4-dihydro-3H-1,2,4-triazol-3-one hydrochloride]",,,,,< 100,510,> 10000,1
"CC(=O)c1ccc(-c2ccc(-n3cnn(C/C(=C\F)CN)c3=O)cc2)s1 [Example 42, 4-[4-(5-acetylthiophen-2-yl)phenyl]-2-[(2Z)-2-(aminomethyl)-3-fluoroprop-2-en-1-yl]-2,4-dihydro-3H-1,2,4-triazol-3-one hydrochloride]",,,,,1,< 0.01,18400,0.47
"NC/C(=C\F)Cn1ncn(-c2cccc(-c3ccc(-c4noc(C5CC5)n4)cc3)c2)c1=O [Example 63, 2-[(2E)-2-(aminomethyl)-3-fluoroprop-2-en-1-yl]-4-[4′-(5-cyclopropyl-1,2,4-oxadiazol-3-yl)biphenyl-3-yl]-2,4-dihydro-3H-1,2,4-triazol-3-one hydrochloride]",,,,,< 30,> 10000,> 100000,1
"NC/C(=C\F)Cn1ncn(-c2cc(C#Cc3ccncc3)ccn2)c1=O [Example 246, 2-[(2E)-2-(aminomethyl)-3-fluoroprop-2-en-1-yl]-4-[4-(pyridin-4-ylethynyl)pyridin-2-yl]-2,4-dihydro-3H-1,2,4-triazol-3-one hydrochloride]",12,130,> 100000,0.5,,,,

# Reference: US11492335B2, “Aryl or heteroaryl triazolone derivatives or salts thereof, or pharmaceutical compositions comprising the same” (YUHAN CORPORATION, priority 2018, dated 2022)
